Reference: the supplement of paper PMC10307832

Legend:
Experiment in all cases: relative viability (nuclei count vs DMSO), 5 days (fraction); higher = more cells survive
[1] = compound: Cc1ccccc1C(C(=O)NC1CCCCC1)N(C(=O)Cn1ccnc1C)c1cccc(F)c1 [IDH-C35] + COc1cccc2cc(-c3nc([C@H]4CC[C@H](C(=O)O)CC4)n4ncnc(N)c34)[nH]c12 [OSI-027] (partner 0.5 µM)
Outline: (§1)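 Relative viability equals treated-well nuclei counts divided by vehicle-well nuclei counts. Counts came from 4× images of lung cancer cell lines grown in 1536-well plates for 5 days after pin-tool dosing on the day after seeding. Dosing used one drug alone or a fixed anchor-drug dose plus five library-drug doses (not always all listed) in √10 steps, and values are medians of duplicate plates.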

[2] = compound: Cc1ccccc1C(C(=O)NC1CCCCC1)N(C(=O)Cn1ccnc1C)c1cccc(F)c1 [IDH-C35] + NC(=O)Nc1cc(-c2cccc(F)c2)sc1C(=O)N[C@H]1CCCNC1 [AZD7762] (partner 0.2 µM)
Outline: as §1

[3] = compound: CC1=C(C(=NN1)C)CC2=C(C3=C(S2)N(C(=O)N(C3=O)C)CC(C)C)C(=O)N4C[C@@H](CO4)O + CS(=O)(=O)N1CCN(Cc2cc3nc(-c4cccc5[nH]ncc45)nc(N4CCOCC4)c3s2)CC1 [Pictilisib] (partner 1 µM)
Outline: as §1

[4] = compound: CC1=C(C(=NN1)C)CC2=C(C3=C(S2)N(C(=O)N(C3=O)C)CC(C)C)C(=O)N4C[C@@H](CO4)O + CCNC(=O)c1noc(-c2cc(C(C)C)c(O)cc2O)c1-c1ccc(CN2CCOCC2)cc1 [Luminespib] (partner 0.01 µM)
Outline: as §1

Cell Line	relative viability ([1]; first compound 0.08 µM)	relative viability ([1]; first compound 0.253 µM)	relative viability ([1]; first compound 0.8 µM)	relative viability ([1]; first compound 2.53 µM)	relative viability ([1]; first compound 8 µM)	relative viability ([2]; first compound 0.253 µM)	relative viability ([2]; first compound 0.8 µM)	relative viability ([2]; first compound 2.53 µM)	relative viability ([2]; first compound 8 µM)	relative viability ([3]; first compound 0.0025 µM)	relative viability ([3]; first compound 0.007906 µM)	relative viability ([3]; first compound 0.025 µM)	relative viability ([3]; first compound 0.07906 µM)	relative viability ([3]; first compound 0.25 µM)	relative viability ([4]; first compound 0.0025 µM)	relative viability ([4]; first compound 0.007906 µM)	relative viability ([4]; first compound 0.025 µM)	relative viability ([4]; first compound 0.07906 µM)	relative viability ([4]; first compound 0.25 µM)	relative viability ([2]; first compound 0.08 µM)
NCI-H1648	0.289	0.234	0.274	0.275	0.257	0.578	0.781	0.687	0.703											
NCI-H1650	0.667	0.593	0.637	0.659	0.571					0.575	0.587	0.714	0.67	0.708	0.188	0.192	0.203	0.192	0.217	
NCI-H1703						0.141		0.131	0.148	0.223	0.224	0.264	0.256	0.242						
NCI-H2009	0.654	0.643	0.685	0.668	0.569					0.875	0.884	0.842	0.998	0.909	1.07	1.06	1.06	1.13	1.02	
NCI-H2023	0.418	0.417	0.426	0.411	0.307					0.308	0.288	0.276	0.23	0.236	0.868	0.945	0.725	0.603	0.737	
NCI-H2228	0.729	0.687	0.55	0.586	0.535					0.546	0.356	0.439	0.352	0.443	0.145	0.161	0.207	0.111	0.144	
NCI-H2342	0.564	0.629	0.564	0.616	0.587	0.563	0.498	0.572	0.384						0.768	0.79	0.855	0.784	0.602	0.521
SK-LU-1	0.377	0.336	0.347	0.357	0.326					0.544	0.354	0.336	0.327	0.343	0.187	0.177	0.182	0.183	0.182	
SK-MES-1	0.634	0.598	0.604	0.597	0.508					0.385	0.421	0.369	0.398	0.432	1.01	0.782	0.969	0.846	0.888	
SW 900	0.496	0.584	0.601	0.353	0.625	0.787		0.505	0.549						0.186	0.182	0.16	0.189	0.15	0.564
SW 1573	0.779	0.798	0.648	0.763	0.753					0.472	0.589	0.595	0.419	0.412	0.32	0.322	0.443	0.213	0.332	
